Test results from patent publication US20200148682A1, “AKT ISOZYME-SPECIFIC COVALENT INHIBITORS DERIVED FROM REDOX-SIGNALING LIPIDS” (Cornell University, priority 2017, published 2020).
“Also recorded” adds a separate entry of the source.

Legend:
Type in all cases: cell-based
MDA-MB-468 cells = assay: Drug effect persistence assay; conditions: for proliferation after drug withdrawal vs continuous treatment: 48 hours drug, then 24 hours without
Protocol: (§1) After this time, cells were lysed and analyzed by antibodies for phosphorylated T305 (pT305) of Akt3, Halo (Akt), and Actin (loading control). […] FIG. 23F is a graph showing proliferation curves. […] After this time, the number of viable cells was calculated using AlamarBlue®. Proliferation curves were fitted to the PI50 equation (EQN. 4). […] FIG. 23H is a graph showing the percentage of viable cells. […] The percentage of growth relative to DMSO-treated cells is shown for the 48 hour point and the 72 hour point. FIG. 23I is a schematic showing the different methods used to derive the data in 23H.
MDA-MB-468 cells were plated in a 96-well plate at a density of 3,000-5,000 cells per well for 10 hours before the addition of varying concentrations of inhibitors. The cells were allowed to grow for 48 hours. The cell medium was aspirated and the cells were washed once with DMEM medium. The cells continued to grow in 5% FBS DMEM medium for 24 hours before adding 1/10th volume of AlamarBlue® reagent to cells in culture medium. The fluorescence emission signals at 590 nm were read using a Cytation 3 cell imaging multi-mode reader (BioTeK) using an excitation wavelength of 560 nm. Curve fitting and data analyses were performed using Prism software (FIG. 23I).

BT-549 = assay: Cell viability assay (AlamarBlue); conditions: BT-549, 72 hours
Protocol: (§2) FIGS. 22A and 22D are graphs showing results of cytotoxicity assays for MDA-MB-468 (FIG. 22A) and BT-549 (FIG. 22D). […] Stated cell lines were plated in 96-well plates (3000 cells per well) in the presence of the stated concentration of inhibitor. After 72 hours, the number of viable cells was analyzed by AlamarBlue®. Proliferation inhibition 50% (PI50) values were calculated by fitting data to “PI50 equation” (EQN 4) (FIG. 22C). MDA cells were transfected with the stated siRNA using lipofectamine 3000 for 12 hours. […] After 72 hours, the number of viable cells was calculated using AlamarBlue®. FIG. 22F is a schematic showing AlamarBlue® viability assay. […] MDA-MB-468 cells were treated with the stated drugs for 72 hours at the PI60 and PI80. After this time, cells were harvested, fixed/permeabilized with ethanol and DNA content was stained using propidium iodide (visualized in the 488-3 channel). RNA was removed simultaneously using RNAse. After 30 min at room temperature, cells were analyzed by flow cytometry.
(§3) Indicated cells were plated in a 96-well plate containing the DMEM complete medium (see Example 11 for complete medium formulation, 100 μL per well) with a density of 3,000-5,000 cells per well for 12 hours followed by the addition of varying concentrations of inhibitors in rinse medium (100 μL). The cells were allowed to grow for 72 hours and 100 μL of the culture medium was removed from each well. This was followed by the addition of 10 μL AlamarBlue® reagent to each well. The fluorescence emission signals at 590 nm were read by Cytation 3 cell imaging multi-mode reader (BioTeK) using an excitation wavelength of 560 nm. Curve fitting and data analysis were performed using Prism software.

MDA-MB-468 = assay: Cell viability assay (AlamarBlue); conditions: MDA-MB-468, 72 hours
Protocol: as §2, §3

Halo-Akt3 = target: T1, Halo-Akt3 (Homo sapiens, UniProt Q9Y243); assay: In-gel fluorescence assay (Cy5-azide click) of covalent labeling in transfected HEK293T cells; conditions: 5 μM, 48 hours
T1 construct: expressed in transfected cells; host or cells: HEK293T
Protocol: HEK293T cells were transfected with Halo-Akt3 for 20 hours, then treated with the stated compound (5 μM, 48 hours). After this time, cells were lysed and the labeling was assayed by click chemistry. […] FIGS. 19A, 19C top gels are images showing in gel fluorescence, Cy5 channel. M is a molecular weight ladder. FIG. 19A, 19C lower panels are images of western blots (probing for Halo and actin, respectively) transferred from the same gel as the top image. […] FIGS. 19E-19F are graphs showing quantitation of in-gel Cy5 signal intensity, divided by the western blot signal for Halo.
Cell transfection with the designated plasmid encoding a given HaloTag-Akt fusion gene was carried out following the general procedure described in Example 12. After 20-24 hours, the transfection media were aspirated and replaced with fresh 2 mL rinse MEM medium supplemented with 3% FBS containing the indicated concentration of inhibitor or the equivalent final volume of DMSO and the plates were incubated for the indicated period of time. Cells were then harvested and lysed following the general procedure described in Examples 11 and 13. A portion of the lysate was made up to 25 μL final volume containing, in final concentrations, 5% t-BuOH, [2 mM TCEP, 1% SDS, 1 mM CuSO4, 0.1 mM Cu(TBTA), 10 μM Cy5 azide made up as a 10× stock in water] and 1.0 mg/mL lysate protein. The samples were incubated at 37° C. for 30 min and subsequently quenched with 8 μL of 4×Laemmeli dye containing 6% f ME. After an additional 5-min incubation at 37° C., samples were resolved on a 10% SDS-PAGE gel following the general procedure described in Example 14. After electrophoresis, the gel was rinsed three times with ddH2O and imaged on a Bio-Rad Chemi-doc-MP Imager. Where applicable, the gel was transferred to a PVDF membrane for western blot analysis following the general procedure described in Example 15.

T47D MK-2206-res = assay: Cell viability assay (AlamarBlue), MK-2206-resistant line; conditions: 3 days
Protocol: as §1, §3

Akt3 C119S mutant = target: T2, Akt3 C119S mutant (Homo sapiens, UniProt Q9Y243, C119S); assay: In-gel fluorescence assay (Cy5-azide click) of covalent labeling in transfected HEK293T cells; conditions: 5 μM, 48 hours
T2 construct: expressed in transfected cells; host or cells: HEK293T
Description: (§4) Overexpressed Akt proteins were labeled with Cy5-small-molecule-fluorophore-conjugated azide (Cy5-azide) using standard click chemistry. FIG. 16A top gel is an image showing Cy5 channel (used to evaluate the extent of covalent binding on each Akt protein). The lysate from non-transfected HEK 293T cells was also used for comparison. M, molecular weight ladder. […] FIG. 16B top gel is an image showing Cy5 channel. M is a molecular weight ladder. FIG. 16B bottom is an image showing western blots probing Halo and actin, respectively. […] Error bars designate s.d. […] Normalized fluorescent signal (NFS) was calculated from the following equation: NFS=[(Cy5(X μM drug)−Cy5(No transfection))/Halo(X μM drug)]÷[(Cy5(no drug)−Cy5(No transfection))/Halo(no drug)]. The relative fluorescent signal (RFS) is calculated from the following equation: RFS=(Cy5(X μM drug)/Halo(X μM drug)) (Cy5(no drug)/Halo(no drug))
(§5) Cell transfection with the designated plasmid encoding a given HaloTag-Akt fusion gene was carried out following the general procedure described in Example 12. After 20-24 hours, the transfection media were aspirated and replaced with fresh 2 mL rinse MEM medium supplemented with 3% FBS containing the indicated concentration of inhibitor or the equivalent final volume of DMSO and the plates were incubated for the indicated period of time. […]

Akt1 = target: T3, Akt1 (Homo sapiens, UniProt P31749); assay: as above; conditions: 5 μM, 48 hours
T3 construct: expressed in transfected cells; host or cells: HEK293T
Description: as §4, §5

endogenous Akt = assay: Biotin-azide pulldown of endogenous Akt kinases from native HEK293T cells; conditions: 5 μM, 12 hours
Protocol: A fraction of each sample was used for the input blot. The remaining cell lysates were labeled with biotin-azide using standard click chemistry followed by streptavidin enrichment.
HEK293T cells were split in 100 cm^2 plates. […] Cells were harvested, washed twice with chilled 1×DPBS and flash frozen. Cell lysis was performed in 200 μL lysis buffer following general procedure described in Example 13, Each lysate was subsequently diluted to 2 mg/mL with lysis buffer and a small fraction of each lysate sample was kept for input gel. The remaining lysates were subjected to click reaction with biotin-azide for 30 min at 37° C. The final concentrations of each component was: 2 mM TCEP, 5% t-BuOH, 1% SDS, 1 mM CuSO4, 0.1 mM Cu(TBTA), 10 μM biotin-azide and 1.2 mg/mL lysate protein. The lysate proteins were precipitated by adding four volumes of ethanol pre-chilled at −20° C. The sample was vortexed and incubated at −80° C. overnight (or at least 4 hours). The precipitant was collected by centrifugation at 20,000×g for 30 min at 4° C. and washed twice with pre-chilled methanol then acetone. The pellet was resuspended in 25 μL 50 mM HEPES (pH 7.6), 8% LDS and 0.5 μM EDTA and dissolved by vortexing and heating at 42° C. for 5 min. […]

Akt2 (pT309) = target: T4, Akt2 (pT309) (Homo sapiens, UniProt P31751); assay: Western blot and ratiometric ELISA of Akt phosphorylation in HEK293T cells; conditions: 5 μM, 48 hours
T4 construct: expressed in transfected cells; host or cells: HEK293T
T4 sequence (P31751 whole entry): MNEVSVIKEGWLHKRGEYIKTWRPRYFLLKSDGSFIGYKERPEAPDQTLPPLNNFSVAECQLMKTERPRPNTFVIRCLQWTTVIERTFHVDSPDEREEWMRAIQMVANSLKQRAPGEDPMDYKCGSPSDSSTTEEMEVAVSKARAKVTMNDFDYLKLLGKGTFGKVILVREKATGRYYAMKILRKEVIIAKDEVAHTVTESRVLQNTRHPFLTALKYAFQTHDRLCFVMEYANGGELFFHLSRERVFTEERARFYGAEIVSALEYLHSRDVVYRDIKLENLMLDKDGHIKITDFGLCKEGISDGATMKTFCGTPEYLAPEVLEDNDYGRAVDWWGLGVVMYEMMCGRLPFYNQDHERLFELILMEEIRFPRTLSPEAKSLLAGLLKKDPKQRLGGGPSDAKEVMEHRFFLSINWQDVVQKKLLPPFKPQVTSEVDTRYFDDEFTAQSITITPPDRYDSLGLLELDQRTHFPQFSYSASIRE

T1 sequence (Q9Y243 whole entry): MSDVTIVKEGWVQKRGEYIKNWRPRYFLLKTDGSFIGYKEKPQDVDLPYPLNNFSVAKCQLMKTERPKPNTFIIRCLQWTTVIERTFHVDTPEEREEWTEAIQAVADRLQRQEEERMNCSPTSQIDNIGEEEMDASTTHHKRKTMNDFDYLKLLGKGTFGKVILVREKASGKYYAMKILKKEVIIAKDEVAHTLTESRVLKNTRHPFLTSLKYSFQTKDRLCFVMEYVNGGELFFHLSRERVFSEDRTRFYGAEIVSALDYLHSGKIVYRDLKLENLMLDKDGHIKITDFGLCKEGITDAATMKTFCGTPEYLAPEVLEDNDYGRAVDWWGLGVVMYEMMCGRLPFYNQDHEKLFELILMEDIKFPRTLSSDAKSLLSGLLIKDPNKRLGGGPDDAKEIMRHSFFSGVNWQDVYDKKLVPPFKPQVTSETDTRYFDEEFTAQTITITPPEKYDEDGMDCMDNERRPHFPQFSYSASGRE
T3 sequence (P31749 whole entry): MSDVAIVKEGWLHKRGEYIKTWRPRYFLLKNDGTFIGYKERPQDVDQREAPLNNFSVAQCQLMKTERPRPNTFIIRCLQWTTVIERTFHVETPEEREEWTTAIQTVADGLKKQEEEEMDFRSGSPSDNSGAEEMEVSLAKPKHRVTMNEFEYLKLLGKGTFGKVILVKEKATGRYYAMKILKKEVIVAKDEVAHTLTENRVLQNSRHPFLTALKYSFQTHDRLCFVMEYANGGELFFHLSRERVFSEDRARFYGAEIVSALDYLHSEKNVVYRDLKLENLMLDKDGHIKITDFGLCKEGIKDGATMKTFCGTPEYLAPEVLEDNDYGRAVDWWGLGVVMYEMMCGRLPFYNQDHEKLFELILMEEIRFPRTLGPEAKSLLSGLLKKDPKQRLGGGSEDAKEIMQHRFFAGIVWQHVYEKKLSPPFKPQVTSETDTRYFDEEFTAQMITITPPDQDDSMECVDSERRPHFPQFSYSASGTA
T2 sequence (Q9Y243 whole entry C119S): as the sequence (Q9Y243 whole entry) above, with C119S counted along it

Question: Which results are given for `NC1(c2ccc(-c3nc4ccn5c(=O)[nH]nc5c4cc3-c3ccccc3)cc2)CCC1` [MK-2206]?
Answer: proliferation after drug withdrawal vs continuous treatment (MDA-MB-468 cells): significant regain of proliferation; EC60 concentration (MDA-MB-468 cells; MDA-MB-468, concentration used for 48 hours treatment): 2000 nM

Question: Which results are given for `C#CCCCC(F)/C=C/C(=O)NC1(c2ccc(-c3nc4ccn5c(=O)[nH]nc5c4cc3-c3ccccc3)cc2)CCC1.Cl` (stereo not drawn) [MK-FNE, (E)-8-(4-(1-(4-Fluoronon-2-en-8-ynamido)cyclobutyl)phenyl)-3-oxo-9-phenyl-2,3-dihydro-[1,2,4]triazolo[3,4-f][1,6]naphthyridin-7-ium Chloride]?
Answer: proliferation after drug withdrawal vs continuous treatment (MDA-MB-468 cells): no difference between withdrawal (wd) and continuous (cont) treatment; toxicity / potency relative to MK-2206 (BT-549): similarly potent to MK-2206; toxicity / potency relative to MK-2206 (MDA-MB-468): similarly potent to MK-2206; covalent labeling of Halo-Akt3 (Halo-Akt3): able to elicit covalent labeling; resistance of T47D MK-2206-res line (T47D MK-2206-res): significantly less resistant

Question: Which results are given for `C#CCCCC(O)/C=C/C(=O)NC1(c2ccc(-c3nc4ccn5c(=O)[nH]nc5c4cc3-c3ccccc3)cc2)CCC1.Cl` (stereo not drawn) [MK-HNE, (E)-8-(4-(1-(4-Hydroxynon-2-en-8-ynamido)cyclobutyl)phenyl)-3-oxo-9-phenyl-2,3-dihydro-[1,2,4]triazolo[3,4-f][1,6]naphthyridin-7-ium Chloride]?
Answer: covalent modification of C119S mutant of Akt3 (Akt3 C119S mutant): no covalent modification; covalent inhibition of Akt1 isoform (Akt1): no covalent inhibition; covalent labeling of Halo-Akt3 (Halo-Akt3): labeling was observed; also recorded: able to elicit covalent labeling; labeling of endogenous Akt (streptavidin enrichment, anti-pan-Akt blot) (endogenous Akt): enrichment of endogenous Akt protein(s); phosphorylation level of Akt2 (Akt2 (pT309)): did not affect phosphorylation levels
